Measured values reported in PMC12274739, “Differential substrate degradation by super-degron: EGFP in wild-type mouse cells, PD-1 requires CRBN humanization” (iScience, 2025).
Values joined by “and” are separate entries in the source; they are usually repeats but may differ in a detail not shown here. Equal entries are not always repeated. Where two headings read alike, the source gives them in different places.

Assays:
[1] = target: endogenous PD-1 tagged with SD (Mus musculus, UniProt Q02242+Q8C7D2); assay: Endogenous PD-1-SD on concanavalin A-stimulated spleen T cells, flow cytometry; type: cell-based; conditions: for percentage of activated T cells characterized by FSC high: Con A-stimulated splenocytes; for PD-1 on CD8+ and CD4+ cells: Con A, 24 h after 1 μM POM or 0.1–1 μM IBR
Description: The dotted lines show an isotype control without IBR. […] The dotted lines show an isotype control without IBR. […] The black lines show isotype control without IBR. […] Red lines show the boundary between positive and negative. […] (B–J) IBR or solvent (−) was added to cultured splenocytes (B–G) or mESCs (H–J). […] The concentration is 0.1 μM in the rightmost bar in each group, and the left neighbor is a step dilution of one-tenth. Intensities of anti-PD-1-FITC on CD4^+ and CD8^+ T cells were measured by flow cytometry, and the geometric means of fluorescence intensities (MFI) were calculated. The MFI of the isotype control of anti-PD-1-FITC was subtracted from each MFI of anti-PD-1-FITC. The dots indicate the results of the experiment for each of the three samples from different individuals.
Pdcd1^SD/SD/Crbn^I391V/I391V spleen-derived T cells were stimulated in vitro with concanavalin A (Con A) followed by treatment with thalidomide analogs to examine PD-1 expression (Figures 6B–6D and S6A–S6C).
To determine whether the same phenomenon occurs in non-T cells, exogenous PD-1 degradation was examined in mESCs transfected with PD-1-SD expression vectors (Figures 6H–6J and S6E). […] We hypothesized that the degradation efficiency of membrane-localized proteins might be reduced in mouse-type CRBNs. Therefore, we expressed EGFP-SDs with membrane-localized peptides attached to their N-termini in mESCs and added IBR. The degradation efficiency of EGFP-SD with membrane-localization peptide[32] […] Therefore, Pdcd1^SD/SD/Crbn^I391V/I391V mice were used for further analyses.
Splenocytes were harvested after the mice were euthanized. Splenocytes were isolated in RPMI 1640 medium and collected using a 70 μm filter. After treatment with ACT solution to remove red blood cells, splenocyte culture was performed at a density of 2 × 10^6 cells/mL in RPMI 1640 with 10% FBS, Glutamax and penicillin-streptomycin and incubated at 37°C in a 5% CO2 containing atmosphere. To activate T cells, 0.5 μg/mL concanavalin A was added to the medium for 3 days to activate T cells.

[2] = target: EGFP-IKZF (UniProt P42212+Q8C7D2, F64L/H231L/INS1V/S65T); type: cell-based, mouse; conditions: read-out: DC50, EGFP-IKZF, stable
[3] = system: mouse PD-1-mCherry-super degron (SD) tag; assay: Degradation of SD-tagged mouse PD-1-mCherry in Jurkat cells, flow cytometry 24 h; type: cell-based, human; conditions: for Bottom, mCherry (mC): no reagent = 1; for Bottom, PD-1 (FITC): surface PD-1, no reagent = 1
Description: To identify a tag that could efficiently knock down mouse PD-1, we connected various degron tags to the C-terminus of PD-1, including IKZF1/3, Sall4, ZFP91, and SD, and generated Jurkat human T cell lymphoma cell lines that stably expressed the mouse PD-1-degron tag (Figure 1A). […] Therefore, a human cell line was used because it was thought that mouse CRBN would not degrade SD by thalidomide analogs. […] We also analyzed the degradation of total proteins using mCherry.
(C and D) The amount was standardized with the sample to which no reagent was added as 1. Concentrations of reagents were 0 (−), 5, 10, and 20 μM for IKZF minimal, IKZF full-length, and Sall4 tags and 0 (−), 0.5, 5 μM for SD tag. The dots indicate the results of the experiment for each of samples.

[4] = target: PD-1 tagged with SD in the brain (Mus musculus, UniProt Q02242+Q8C7D2); assay: PD-1 expression in brain, western blotting; type: in vivo; conditions: Pdcd1SD/SD/CrbnI391V/I391V mice
Description: Although the growth of GL-261 in the brain was inhibited, it is likely that the BBB was destroyed in cancer growth experiments in which GL-261 was transplanted.[34] Therefore, we conducted an experiment in which IBR was administered without the transplantation of brain tumor cell lines as a model for protein degradation experiments in the brain under normal conditions. […] Thus, this degron system can be used in the brain.
Brain tissue was collected after the mice were deeply anesthetized and perfused with PBS to remove blood. They were immediately frozen in liquid nitrogen and homogenized in Nervous Tissue Protein Extraction buffer (TCI, Tokyo, Japan). After centrifuging the lysate at 20,000 g for 10 min at 4°C, heated at 98°C for 3 min with NuPAGE Sample Reducing Agent (Thermo Fisher Scientific) and NuPAGE LDS Sample buffer (Thermo Fisher Scientific), the supernatant was used for SDS-PAGE. SDS-PAGE was performed using a 5–12% polyacrylamide gel (FUJIFILM Wako) and NuPAGE MOPS SDS running buffer (Thermo Fisher Scientific) for 1 h, 120 V. One microgram of protein was loaded in each lane. […] After three washes with PBST, the secondary antibodies were detected using ImmunoStar (FUJIFILM Wako) and LAS 3000 (FUJIFILM). […]

[5] = target: EGFP-SD (Aequorea victoria, UniProt P42212, F64L/H231L/S65T); type: cell-based, mouse; conditions: stable; for DC50: read-out: DC50, EGFP-SD
[6] = Pdcd1SD/SD/CrbnI391V/I391V T cells
[7] = CrbnI391V/I391V mESCs, Figure 5E

Chain of endogenous PD-1 tagged with SD (Q02242 with tags, fused parts or gaps): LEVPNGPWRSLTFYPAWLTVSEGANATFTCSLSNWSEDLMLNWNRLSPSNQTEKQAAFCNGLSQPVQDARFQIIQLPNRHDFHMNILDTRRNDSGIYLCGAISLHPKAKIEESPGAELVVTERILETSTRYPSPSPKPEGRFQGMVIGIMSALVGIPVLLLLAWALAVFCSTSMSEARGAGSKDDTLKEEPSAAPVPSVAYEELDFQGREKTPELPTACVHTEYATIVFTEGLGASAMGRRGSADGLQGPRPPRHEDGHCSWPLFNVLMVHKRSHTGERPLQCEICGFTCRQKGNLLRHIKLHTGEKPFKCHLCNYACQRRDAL
Chain of endogenous PD-1 tagged with SD (Q8C7D2 whole entry): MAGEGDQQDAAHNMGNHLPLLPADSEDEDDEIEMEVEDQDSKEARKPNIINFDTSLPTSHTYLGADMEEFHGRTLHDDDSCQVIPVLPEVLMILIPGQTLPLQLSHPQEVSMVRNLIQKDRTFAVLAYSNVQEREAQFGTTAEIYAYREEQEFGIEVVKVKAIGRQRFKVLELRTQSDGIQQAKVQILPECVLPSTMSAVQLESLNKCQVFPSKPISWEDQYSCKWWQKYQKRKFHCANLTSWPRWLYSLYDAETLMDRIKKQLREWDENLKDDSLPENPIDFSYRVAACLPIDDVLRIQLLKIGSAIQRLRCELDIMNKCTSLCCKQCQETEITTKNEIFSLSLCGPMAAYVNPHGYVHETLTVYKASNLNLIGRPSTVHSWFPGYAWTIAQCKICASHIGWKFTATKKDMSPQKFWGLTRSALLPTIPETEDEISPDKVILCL
Chain of endogenous PD-1 tagged with SD (Q3U1J4 whole entry partner): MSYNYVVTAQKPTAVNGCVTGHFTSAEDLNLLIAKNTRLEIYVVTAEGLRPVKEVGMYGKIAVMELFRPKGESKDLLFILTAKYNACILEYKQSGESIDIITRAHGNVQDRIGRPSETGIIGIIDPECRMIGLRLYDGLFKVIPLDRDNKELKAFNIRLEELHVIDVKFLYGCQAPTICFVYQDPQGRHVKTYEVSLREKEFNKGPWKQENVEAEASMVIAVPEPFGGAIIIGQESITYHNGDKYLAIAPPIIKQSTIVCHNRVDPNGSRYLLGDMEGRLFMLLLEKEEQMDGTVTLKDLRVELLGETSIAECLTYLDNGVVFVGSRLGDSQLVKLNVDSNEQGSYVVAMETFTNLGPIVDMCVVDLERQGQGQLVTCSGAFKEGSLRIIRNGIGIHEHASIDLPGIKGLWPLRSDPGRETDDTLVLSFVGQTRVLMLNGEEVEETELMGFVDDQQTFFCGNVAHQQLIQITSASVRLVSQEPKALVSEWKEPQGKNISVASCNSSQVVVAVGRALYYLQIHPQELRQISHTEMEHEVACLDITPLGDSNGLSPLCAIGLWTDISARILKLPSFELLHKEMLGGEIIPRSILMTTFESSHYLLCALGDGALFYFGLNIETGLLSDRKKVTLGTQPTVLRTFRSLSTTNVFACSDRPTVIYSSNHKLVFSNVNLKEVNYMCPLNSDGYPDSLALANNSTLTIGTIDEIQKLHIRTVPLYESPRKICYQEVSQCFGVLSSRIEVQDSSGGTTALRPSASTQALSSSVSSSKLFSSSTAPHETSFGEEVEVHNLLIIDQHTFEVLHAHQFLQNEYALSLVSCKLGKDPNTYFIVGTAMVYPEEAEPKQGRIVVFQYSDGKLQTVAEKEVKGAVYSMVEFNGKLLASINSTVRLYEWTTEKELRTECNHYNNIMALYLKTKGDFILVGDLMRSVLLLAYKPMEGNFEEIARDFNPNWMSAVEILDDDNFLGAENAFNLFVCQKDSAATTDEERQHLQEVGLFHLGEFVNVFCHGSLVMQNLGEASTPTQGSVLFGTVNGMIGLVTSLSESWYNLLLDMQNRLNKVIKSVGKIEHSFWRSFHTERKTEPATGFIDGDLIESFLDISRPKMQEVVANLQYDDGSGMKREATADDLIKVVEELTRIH
Chain of EGFP-IKZF (Q8C7D2 whole entry, looked up, stated change not applied, other chains not shown): as the sequence (Q8C7D2 whole entry) above
Chain of PD-1 tagged with SD in the brain (Q02242 with tags, fused parts or gaps): as the sequence (Q02242 with tags, fused parts or gaps) above
Chain of PD-1 tagged with SD in the brain (Q8C7D2 whole entry): as the sequence (Q8C7D2 whole entry) above
Chain of PD-1 tagged with SD in the brain (Q3U1J4 whole entry partner): as the sequence (Q3U1J4 whole entry partner) above

| SMILES | percentage of activated T cells characterized by FSC high [1] | PD-1 on CD8+ and CD4+ cells [1, 6] | DC50 [2, 7] | concentration showing the same effect on PD-1-SD [3] | Bottom, mCherry (mC) [3] | Bottom, PD-1 (FITC) [3] | Bottom, EGFP-SD ([5]; B6J-S1 mESCs, Figure 5D) | LogDC50, EGFP-SD ([5]; B6J-S1 mESCs, Figure 5D) | Bottom, EGFP-SD [5, 7] | LogDC50, EGFP-SD [5, 7] | DC50 ([5]; B6J-S1 mESCs, Figure 5D) | DC50 [5, 7] | further results |
| --- | --- | --- | --- | --- | --- | --- | --- | --- | --- | --- | --- | --- | --- |
| O=C1CC[C@H](N2Cc3c(OCc4ccc(CN5CCOCC5)cc4)cccc3C2=O)C(=O)N1 [IBR, iberdomide] | not affected | barely observed | 0.639 nM | 0.5 µM | 0.2415 | 0.1258 | 0.02363 | -3.579 μM | 0.04851 | -4.174 μM | 0.264 nM | 0.067 nM | PD-1 degradation ([1]; Pdcd1SD/SD/Crbn+/+ T cells): barely degraded; PD-1 removal ([1]; Pdcd1SD/SD/CrbnI391V/I391V T cells, 10^−2 μM and 10^−3 μM IBR): mostly removed; DC50 ([2]; B6J-S1 mESCs, Figure 5B): 29.1 nM; PD-1 expression in the brain ([4]; IBR 10 mg/kg oral, 24 h): no changes in PD-1 expression in the brain; Bottom, EGFP-SD ([5]; B6J-S1 mESCs, Figure 5B): 0.05422; LogDC50, EGFP-SD ([5]; B6J-S1 mESCs, Figure 5B): -3.152 μM; DC50 ([5]; B6J-S1 mESCs, Figure 5B): 0.704 nM |
| Nc1cccc2c1C(=O)N(C1CCC(=O)NC1=O)C2=O (stereo not shown) [POM, pomalidomide] | not affected | barely observed | 5.11 nM | 5 µM | 0.2421 | 0.11 and 0.1083 | 0.01974 | -2.853 μM | 0.06229 | -2.993 μM | 1.4 nM | 1.02 nM | DC50 ([3]; read-out: DC50, PD-1 (FITC), surface PD-1): 148 nM; DC50 ([3]; read-out: DC50, mCherry (mC), mCherry): 234 nM; PD-1 amount in the brain vs vehicle ([4]; 20 mg/kg POM oral, after 24 h): reduced to half the amount |
